Assay results from patent US20060046968A1, “Prodrug substituted benzoxazoles as estrogenic agents” (priority 2004, published 2006).
Marks after values point to notes of the source that are not given here.

Tests used:
Type in all cases: in vivo
[1] = tested on: Male HLA-B27 rats; test: HLA rat test for inflammatory bowel disease: stool character (3 = diarrhea; 2 = soft stool; 1 = normal stool)
[2] = tested on: Male HLA-B27 rats; test: HLA-B27 rat test for inflammatory bowel disease: histological scoring of colon; conditions: for Fibrosis (0-2) / Inflammation (0-3) / Lesion depth (0-2) / Total score / Ulceration (0-2): colon histology
Experimental: Representative metabolites of compounds of the invention were evaluated in the HLA rat standard pharmacological test procedure, which emulates inflammatory bowel disease in humans. The following briefly describes the procedure used and results obtained. […] Louis) and water. Stool quality was observed daily and graded according to the following scale: Diarrhea=3; soft stool=2; normal stool=1. At the end of the study, serum was collected and stored at −70° C. A section of colon was prepared for histological analysis and an additional segment was analyzed for myeloperoxidase activity. In Study A, rats (22-26 weeks old) were dosed subcutaneously once per day for seven days with one of the regimens listed below. […] Histological analysis. Colonic tissue was immersed in 10% neutral buffered formalin. Each specimen of colon was separated into four samples for evaluation. The formalin-fixed tissues were processed in a Tissue-Tek® vaccum infiltration processor (Miles, Inc; West Haven, Conn.) for paraffin embedding. The samples were sectioned at 5 μm and then stained with hematoxylin and eosin (H&E) for blinded histological evaluations using a scale modified after Boughton-Smith. After the scores were completed, the samples were unblinded, and data were tabulated and analyzed by ANOVA linear modeling with multiple mean comparisons. Sections of colonic tissue were evaluated for several disease indicators and given relative scores.

[3] = tested on: Sexually immature Sprague-Dawley rats; test: Rat uterotrophic test procedure (Procedure 1); conditions: compound 2 mg/rat + 17α-ethinyl, 17β-estradiol 0.06 μg/rat s.c. (antagonist mode)
[4] = tested on: ovariectomized Sprague-Dawley rats; test: Bone mineral density in the ovariectomized rat (pQCT, proximal tibia); conditions: compound 10 mg/kg s.c.; 5 weeks
[5] = tested on: ovulation (number of oocytes ovulated); test: Ovulation inhibition test procedure; conditions: 50 mg/kg
From the text: The test procedure is used to determine whether test compounds can inhibit or change the timing of ovulation. It can also be used to determine the number of oocytes ovulated [Lundeen, et al., J Steroid Biochem Mol Biol 78: 137-143 (2001)]. The following data were obtained from representative metabolites of compounds from the invention (Table 22).

[6] = tested on: Male HLA-B27 rats; test: HLA-B27 rat model of arthritis: joint scores; conditions: Study 1, oral 20 mg/kg once per day (10 mg/kg earlier)
[7] = tested on: Sexually immature 129 SvE mice; test: Mouse uterotrophic test procedure (Procedure 2); conditions: compound 50 mg/kg s.c., days 22-25
[8] = tested on: Male HLA-B27 rats; test: HLA-B27 rat model of arthritis: joint histology; conditions: Study 1; oral 46 days; 10 mg/kg days 1-24, then 20 mg/kg
Experimental: At the end of the study, the rats are euthanized with CO2, hindlimbs removed at necropsy and fixed in 10% buffered formalin, and the tarsal joints decalcified and embedded in paraffin. Histologic sections are stained with Hematoxylin and Eosin or […] Green stain. Slides are coded so that the examiner is blinded to the treatment groups. Synovial tissue from tarsal joints is evaluated based on synovial hyperplasia, inflammatory cell infiltration, and pannus formation [Poole and Coombs, International Archives of Allergy & Applied Immunology 54: 97-113 (1977)], as outlined below. [table] […] [table] Representative metabolites of compounds of the invention were evaluated in the HLA-B27 rat standard pharmacological test procedure, which emulates arthritis in humans. The following briefly describes the procedure used and results obtained. Male HLA-B27 rats were obtained from Taconic and provided unrestricted access to a food (PMI® LabDiet 5001) and water. Joint scores and histology were evaluated as described above for the Lewis rat model of adjuvant-induced arthritis. Study 1: […]

[9] = Study C, oral 7 weeks, 10 mg/kg days 1-24, then 20 mg/kg

## C=Cc1cc(O)cc2nc(-c3ccc(O)c(F)c3)oc12 [Example 24, 2-(3-FLUORO-4-HYDROXYPH ENYL)-7-VI NYL-1,3-BENZOXAZOL-5-OL]
[1]; Study A, 50 mg/kg s.c.
  Stool quality: Stool quality was improved
[1]; Study A, 50 mg/kg s.c. once per day, Day 1
  Stool Character (group's average score): 2.8
[1]; Study A, 50 mg/kg s.c. once per day, Day 2
  Stool Character (group's average score): 2
[1]; Study A, 50 mg/kg s.c. once per day, Day 3
  Stool Character (group's average score): 1.8
[1]; Study A, 50 mg/kg s.c. once per day, Day 4
  Stool Character (group's average score): 1.6
[1]; Study A, 50 mg/kg s.c. once per day, Day 5
  Stool Character (group's average score): 1.6
[1]; Study A, 50 mg/kg s.c. once per day, Day 6
  Stool Character (group's average score): 1.4
[1]; Study C, oral 10 mg/kg once per day, Day 1
  Stool Character (group's average score): 2.75
[1]; Study C, oral 10 mg/kg once per day, Day 2
  Stool Character (group's average score): 2.75
[1]; Study C, oral 10 mg/kg once per day, Day 3
  Stool Character (group's average score): 2.75
[1]; Study C, oral 10 mg/kg once per day, Day 4
  Stool Character (group's average score): 2.5
[1]; Study C, oral 10 mg/kg once per day, Day 5
  Stool Character (group's average score): 2
[1]; Study C, oral 10 mg/kg once per day, Day 6
  Stool Character (group's average score): 2.5
[1]; Study C, oral 10 mg/kg once per day, Day 7
  Stool Character (group's average score): 2.25
[1]; Study C, oral 10 mg/kg once per day, Day 8
  Stool Character (group's average score): 2.25
[1]; Study C, oral 10 mg/kg once per day, Day 9
  Stool Character (group's average score): 2.25
[1]; Study C, oral 10 mg/kg once per day, Day 10
  Stool Character (group's average score): 2.25
[1]; Study C, oral 10 mg/kg once per day, Day 11
  Stool Character (group's average score): 2.25
[1]; Study C, oral 10 mg/kg once per day, Day 12
  Stool Character (group's average score): 1.75
[1]; Study C, oral 10 mg/kg once per day, Day 13
  Stool Character (group's average score): 2.25
[1]; Study C, oral 10 mg/kg once per day, Day 14
  Stool Character (group's average score): 2
[1]; Study C, oral 10 mg/kg once per day, Day 15
  Stool Character (group's average score): 1.75
[1]; Study C, oral 10 mg/kg once per day, Day 16
  Stool Character (group's average score): 1.75
[1]; Study C, oral 10 mg/kg once per day, Day 17
  Stool Character (group's average score): 1.75
[1]; Study C, oral 10 mg/kg once per day, Day 18
  Stool Character (group's average score): 1.75
[1]; Study C, oral 10 mg/kg once per day, Day 19
  Stool Character (group's average score): 1.75
[1]; Study C, oral 10 mg/kg once per day, Day 20
  Stool Character (group's average score): 1.75
[1]; Study C, oral 10 mg/kg once per day, Day 21
  Stool Character (group's average score): 1.75
[1]; Study C, oral 10 mg/kg once per day, Day 22
  Stool Character (group's average score): 1.75
[1]; Study C, oral 10 mg/kg once per day, Day 23
  Stool Character (group's average score): 1.75
[1]; Study C, oral 10 mg/kg once per day, Day 24
  Stool Character (group's average score): 2
[1]; Study C, oral 20 mg/kg once per day (10 mg/kg earlier), Day 25
  Stool Character (group's average score): 2
[1]; Study C, oral 20 mg/kg once per day (10 mg/kg earlier), Day 26
  Stool Character (group's average score): 2.25
[1]; Study C, oral 20 mg/kg once per day (10 mg/kg earlier), Day 27
  Stool Character (group's average score): 1.75
[1]; Study C, oral 20 mg/kg once per day (10 mg/kg earlier), Day 28
  Stool Character (group's average score): 1.75
[1]; Study C, oral 20 mg/kg once per day (10 mg/kg earlier), Day 29
  Stool Character (group's average score): 1.5
[1]; Study C, oral 20 mg/kg once per day (10 mg/kg earlier), Day 30
  Stool Character (group's average score): 1.5
[1]; Study C, oral 20 mg/kg once per day (10 mg/kg earlier), Day 31
  Stool Character (group's average score): 1.5
[1]; Study C, oral 20 mg/kg once per day (10 mg/kg earlier), Day 32
  Stool Character (group's average score): 1.5
[1]; Study C, oral 20 mg/kg once per day (10 mg/kg earlier), Day 33
  Stool Character (group's average score): 1.75
[1]; Study C, oral 20 mg/kg once per day (10 mg/kg earlier), Day 34
  Stool Character (group's average score): 1.75
[1]; Study C, oral 20 mg/kg once per day (10 mg/kg earlier), Day 35
  Stool Character (group's average score): 1.5
[1]; Study C, oral 20 mg/kg once per day (10 mg/kg earlier), Day 36
  Stool Character (group's average score): 1.5
[1]; Study C, oral 20 mg/kg once per day (10 mg/kg earlier), Day 37
  Stool Character (group's average score): 1.25
[1]; Study C, oral 20 mg/kg once per day (10 mg/kg earlier), Day 38
  Stool Character (group's average score): 1.75
[1]; Study C, oral 20 mg/kg once per day (10 mg/kg earlier), Day 39
  Stool Character (group's average score): 1.75
[1]; Study C, oral 20 mg/kg once per day (10 mg/kg earlier), Day 40
  Stool Character (group's average score): 1.5
[1]; Study C, oral 20 mg/kg once per day (10 mg/kg earlier), Day 41
  Stool Character (group's average score): 1.75
[1]; Study C, oral 20 mg/kg once per day (10 mg/kg earlier), Day 42
  Stool Character (group's average score): 1.5
[1]; Study C, oral 20 mg/kg once per day (10 mg/kg earlier), Day 43
  Stool Character (group's average score): 1.5
[1]; Study C, oral 20 mg/kg once per day (10 mg/kg earlier), Day 44
  Stool Character (group's average score): 1.5
[1]; Study C, oral 20 mg/kg once per day (10 mg/kg earlier), Day 45
  Stool Character (group's average score): 1.25
[1]; Study C, oral 20 mg/kg once per day (10 mg/kg earlier), Day 46
  Stool Character (group's average score): 1.25
[2]; Study C, oral
  Total disease score versus vehicle: significantly reduced total disease score
[2]; [9]
  Fibrosis (0-2), mean ± SD: 0*
  Inflammation (0-3), mean ± SD: 0.69 ± 0.24
  Lesion depth (0-2), mean ± SD: 0*
  Total score, mean ± SD: 0.69 ± 0.24
  Ulceration (0-2), mean ± SD: 0*
[2]; 1 mg/kg s.c., second study
  Fibrosis (0-2): 0.75
  Inflammation (0-3): 1.63*
  Lesion depth (0-2): 0.88*
  Total score: 4.4*
  Ulceration (0-2): 1.25
[2]; 10 mg/kg s.c., second study
  Fibrosis (0-2): 0.50*
  Inflammation (0-3): 1.63*
  Lesion depth (0-2): 0.69*
  Total score: 3.6*
  Ulceration (0-2): 0.81*
[2]; 50 mg/kg s.c.
  Fibrosis (0-2): 0*
  Inflammation (0-3): 1.05*#
  Lesion depth (0-2): 0.2#
  Total score: 1.5*#
  Ulceration (0-2): 0.25*#
[2]; composite of two subcutaneous dosing studies
  Measurements of tissue injury, colon histology: effective in reducing several measurements of tissue injury
[3]
  mean uterine weight ± SEM: 80.7 ± 5.3 mg
[4]
  Total Bone Mineral Density (mean ± SEM): 517.56 ± 9.67 mg/mL
  Trabecular Bone Mineral Density (mean ± SEM): 321.16 ± 9.04 mg/mL
[5]
  Number of oocytes (mean ± SEM): 13.86 ± 0.77
[6]; Day 29
  Joint inflammation score: 1.5
[6]; Day 30
  Joint inflammation score: 0.5
[6]; Day 31
  Joint inflammation score: 0.5
[6]; Day 32
  Joint inflammation score: 1.25
[6]; Day 33
  Joint inflammation score: 2
[6]; Day 34
  Joint inflammation score: 2.25
[6]; Day 35
  Joint inflammation score: 2
[6]; Day 36
  Joint inflammation score: 2.25
[6]; Day 37
  Joint inflammation score: 2
[6]; Day 38
  Joint inflammation score: 2.75
[6]; Day 39
  Joint inflammation score: 2.25
[6]; Day 40
  Joint inflammation score: 1.75
[6]; Day 41
  Joint inflammation score: 2
[6]; Day 42
  Joint inflammation score: 2.5
[6]; Day 43
  Joint inflammation score: 4.75
[6]; Day 44
  Joint inflammation score: 3
[6]; Day 45
  Joint inflammation score: 2.75
[6]; Day 46
  Joint inflammation score: 3.25
[7]
  mean uterine weight ± SEM: 10.7 ± 0.9 mg
[8]
  Mankin score (mean ± SD): 3.5 ± 1.8
  Synovitis score (mean ± SD): 3.17 ± 0.3
